Assay [1] has as its system serum ALT (alanine aminotransferase). Kind of assay: Effect of inhibiting hepatic disorder induced by carbon tetrachloride: serum ALT. The format is in vivo, male ICR mice. Conditions: CCl4 100 μl/kg i.p., compound 50 mg/kg per day oral, 3 days; for Serum ALT value: mean±SE. An excerpt:
First, the effects of allylthiopyridazine derivative of formula (I) for prevention and treatment of hepatic diseases was examined using carbon tetrachloride model and acetaminophen model.
Carbon tetrachloride model [see, Philippe letteron et al., Biochemical Pharmacology, 39, 12, 2027-2034, 1990] is most frequently used as an experimental model of hepatic disorder and has been established on the basis of the fact that carbon tetrachloride is converted into trichloromethyl free radical (CCl3 .), a highly toxic metabolite, by the action of cytochrome P-450 in body. This metabolite strongly binds with thiol group of liver microsomal membrane protein to produce a lipid radical, which is then converted into peroxy radical in the presence of oxygen, thereby stimulating the peroxidation reaction of membrane lipid. That is, carbon tetrachloride inhibits protein biosynthesis in liver, increases blood ALT (alanine aminotransferase) and causes centrilobular necrosis of liver cells.
(§1) In the present invention, the inhibiting effect of the compound of formula (I) on hepatic disorder, induced by carbon tetrachloride and acetaminophene, was determined after oral administration of the novel compound according to the present invention to mouse as the experimental animal for 3 days. The degree of liver damage in respective experimental animal was determined by measuring ALT and LDH levels in blood [see, Biol. Pharm. Bull., 20, 4, 381-385, 1997; Toxicology and Applied Pharmacology, 95, 1-11, 1988], and further by removing the liver, staining (×100) the liver with hematoxylin and eosin and then observing with microscope to examine the degree of hepatocyte necrosis.
Effect of inhibiting hepatic disorder induced by carbon tetrachloride
(§2) The liver protective effect of the compound according to the present invention was examined according to the known method [see, Philippe letteron et al., Biochemical Pharmacology, 39, 12, 2027-2034, 1990] as specifically described below.
(§3) The compound according to the present invention was suspended in corn oil and the resulting suspension was administered in an amount of 1.0 ml/kg. Each group was composed of 3 to 10 male ICR mice (5-6 weeks) and the test compound was orally administered for 3 days in the dose of 50 mg/kg per day. After the test compound was administered, carbon tetrachloride was intraperitoneally injected in an amount of 100 μl/kg. In this experiment, silymarin was used as the comparative compound. After 24 hours from administration of carbon tetrachloride, blood was taken from the test animal by cardiac perforation and ALT value in serum was determined. The result obtained is described in the following Table 2 (in which ALT value is represented by mean±SE). The ALT unit in serum was determined by centrifuging blood to separate serum as the supernatant, and then the separated serum were subjected to Reitman-Frankel method by means of a commercially available kit (BC101-O,P, Youngdong Pharm.). That is, DL-alanine and α-ketoglutarate were used as the substrate solution to which 2,4-dinitrophenylhydrazine was added to produce hydrazone. Then, sodium hydroxide was added to hydrazone to colorize and then the absorbance was measured at 505 nm.

The subject of assay [2] is serum LDH (lactate dehydrogenase). The assay can be described thus: Effect of inhibiting hepatic disorder induced by acetaminophen (APAP): serum LDH. The format is in vivo, male ICR mice. The conditions noted are these: APAP 0.5 g/kg oral, compound 50 mg/kg per day oral, 3 days; for Serum LDH value: mean±SE.
From the text: (§4) In addition, the liver protective effects of the compound of the present invention can also be confirmed by acetaminophen model [see, Wang et al., Toxicology and applied Pharmacology, 136, 146-154, 1996]. Acetaminophen is rapidly metabolized by CYP2E1 to cause hepatic toxicity, which results in structural and functional change in liver cellular membrane, causing necrosis in hepatic lobule, an increase in blood ALT and LDH (lactate dehydrogenase) levels.
as §1
(§5) Effect of inhibiting hepatic disorder induced by acetaminophen (APAP)
(§6) The liver protective effect of the compound according to the present invention was examined according to the known method [see, Wang et al., Toxicology and applied Pharmacology, 136, 146-154, 1996] as specifically described below.
(§7) The compound according to the present invention was suspended in corn oil and the resulting suspension was administered in an amount of 1.0 ml/kg. Each group was composed of 3 to 10 male ICR mice (5-6 weeks) and the test compound was orally administered for 3 days in the dose of 50 mg/kg per day. After 2 hours from the last administration of the test compound, acetaminophen was orally administered in an amount of 0.5 g/kg. In this experiment, silymarin was used as the comparative compound. After 22 hours from the administration of acetaminphen, blood was taken from the individual test animal and ALT and LDH values in serum were determined. The results as obtained are described in the following Tables 4 and 5 (in which ALT and LDH values are represented by mean±SE). In addition, liver was removed from the test animals and then observed according to the same manner as Experiment 3 to evaluate the degree of hepatocyte necrosis.

The subject of assay [3] is hepatocyte necrosis. The assay can be described thus: Effect of inhibiting hepatic disorder induced by carbon tetrachloride: hepatocyte necrosis. Format: in vivo, male ICR mice. The conditions noted are these: CCl4 model, 50 mg/kg per day oral, 3 days; for Degree of necrosis 1: number of animals: grade 1 mild lesion; for Degree of necrosis 2: number of animals: grade 2 moderate lesion; for Degree of necrosis 3: number of animals: grade 3 severe lesion; for Degree of necrosis 4: number of animals: grade 4 diffused lesion. As for the experimental part:
as §1, §2, §3
(§8) In addition, liver was removed from the test animals, stained (×100) with hematoxylin and eosin and then observed by microscope. The degree of hepatocyte necrosis was evaluated according to the following 5 grades: 0 no lesion, 1 mild lesion, 2 moderate lesion, 3 severe lesion and 4 diffused lesion.

Assay [4] concerns serum ALT (alanine aminotransferase). Kind of assay: Effect of inhibiting hepatic disorder induced by acetaminophen (APAP): serum ALT. The format is in vivo, male ICR mice. Conditions: APAP 0.5 g/kg oral, compound 50 mg/kg per day oral, 3 days; for Serum ALT value: mean±SE.
From the text: as §4, §1, §5, §6, §7

Assay [5] relates to hepatocyte necrosis. Kind of assay: Effect of inhibiting hepatic disorder induced by acetaminophen (APAP): hepatocyte necrosis. The format is in vivo, male ICR mice. The conditions noted are these: APAP model, 50 mg/kg per day oral, 3 days; for Degree of necrosis 0: number of animals: grade 0 no lesion; for Degree of necrosis 1: number of animals: grade 1 mild lesion; for Degree of necrosis 2: number of animals: grade 2 moderate lesion; for Degree of necrosis 3: number of animals: grade 3 severe lesion; for Degree of necrosis 4: number of animals: grade 4 diffused lesion. How it is done:
as §1, §8, §6, §7

The conditions of assay [6]: literature; cited from earlier work.
The next assay deals with radiation damage. Kind of assay: Protective effect against radiation damage: survival of mouse. Conditions: 100 mg/kg per day, 2 days. Format: in vivo, male ICR mouse. An excerpt:
Further, the present inventors have confirmed the protective effect of allylthiopyridazine derivative according to the present invention against radiation by administering the active compound to mouse, irradiating the radiation of 8 or 9Gy and, after a certain period, measuring the survival rate of mouse. For example, the survival rate during 30 days of 8Gy radiation can be seen from FIG. 3, and the specific experimental result is described in the following Table 7. Specifically, when 8Gy radiation is used, the survival rate during 30 days in the groups which only radiation was used was merely 48%, whereas the survival rates during 30 days in the groups to which the compounds of Examples 4 and 8 are previously administered were 76% and 70%, respectively. Therefore, it can be noted that the protective effect of the compound according to the present invention against radiation is proven to be a very significant novel discovery.
Protective effect against radiation damage
In order to confirm the protective effect of the compound of the present invention against radiation damage, the following test was conducted.
Male ICR mouse was bred in a chamber to which sterile atmosphere is supplied, at inner temperature 20-23° C. and relative humidity 50% with sufficient water and feed. When the weight of mouse reached 20-25 g, the compound of the present invention was suspended in corn oil and then administered for 2 days in the dose of 100 mg/kg (1 ml/kg) per day. After 3 hours from the last administration of the test compound, 8 or 9 Gy radiation was irradiated to mouse. Specifically, mouse was introduced into a box made of acryl which limited his movement, and then radiation produced from ^60 Co radioactive material was irradiated to whole body at the irradiating rate of 115.8 cGy/min. The dimension of acryl box was 31×31 cm^2, which is the same as the irradiating area of radiation. After 7 days of irradiation of γ-ray, mouse was sacrificed to conduct the histopathologic observation. The result of examining the survival rate during 30 days of irradiation of 8 Gy radiation is shown in FIG. 3, and the result of determining the survival rate after a certain period (10, 13 or 30 days) from irradiation of 8 or 9 Gy radiation is described in the following Table 7.

For assay [7] the following is noted: induced by carbon tetrachloride and acetaminophen; cited from earlier work.
For assay [8] the following is noted: literature; cited from earlier work. This is another data set of the same source.
The subject of assay [9] is microsomal epoxide hydrolase (mEH) and glutathione S-transferases (GST). Conditions: literature; cited from earlier work.

In the case of `C=CCSc1ccc(OCCC)nn1` [Example 12, 3-(n-propoxy)-6-allylthiopyridazine], in [1], the “Inhibiting rate (serum ALT)” value was determined as 40% and the “Serum ALT value” is on record as 5585 ± 705 KA unit/l. Further, in assay [2], the “Inhibiting rate (serum LDH)” value was found to be 59% and the “Serum LDH value” was determined as 5480 ± 2346 KA unit/l. In addition, the “Degree of necrosis 0: number of animals” value in the assay on hepatocyte necrosis [3] (grade 0 no lesion) came to 0. In the assay on hepatocyte necrosis [3], the “Degree of necrosis 1: number of animals” value amounted to 0, the “Degree of necrosis 2: number of animals” value turned out to be 2, the “Degree of necrosis 3: number of animals” value was determined as 3 and the “Degree of necrosis 4: number of animals” value turned out to be 4. Further, in assay [4], the “Inhibiting rate (serum ALT)” value was 25% and the “Serum ALT value” worked out at 2749 ± 1352 KA unit/l. In addition, in the assay with hepatocyte necrosis [5], the “Degree of necrosis 0: number of animals” value is listed as 0, the “Degree of necrosis 1: number of animals” value is reported as 1, the “Degree of necrosis 2: number of animals” value is listed as 1 and the “Degree of necrosis 3: number of animals” value was found to be 1. Moreover, in the assay on hepatocyte necrosis [5], the “Degree of necrosis 4: number of animals” value amounted to 3.
Take `C=CCSCC=C` [diallyl sulfide]: the “effect on oncogenesis and hepatotoxicity of 1,2-dimethylhydrazine” value in assay [6] was “inhibiting oncogenesis due to 1,2-dimethylhydrazine and protecting liver from hepatotoxicity of 1,2-dimethylhydrazine”.
Turning to `C=CCSc1ccc(OCC)nn1` [Example 8], in the assay with radiation damage (10 days of 9 Gy radiation), the survival number was 17/23 and the survival rate is recorded as 74%. For the same compound, in the assay with radiation damage (13 days of 9 Gy radiation), the survival number was 5/23 and the survival rate came out at 22%. In addition, in the assay on radiation damage (30 days of 8 Gy radiation), the survival number is 16/23 and the survival rate is reported as 70%. For the same compound, in assay [1], the “Inhibiting rate (serum ALT)” value turned out to be 33% and the “Serum ALT value” is on record as 6123 ± 2230 KA unit/l. Further, in assay [2], the “Inhibiting rate (serum LDH)” value is reported as 95.6% and the “Serum LDH value” was determined as 1193 ± 546 KA unit/l. In the assay on hepatocyte necrosis [3], the “Degree of necrosis 1: number of animals” value was 1, the “Degree of necrosis 2: number of animals” value worked out at 2, the “Degree of necrosis 3: number of animals” value stood at 1 and the “Degree of necrosis 4: number of animals” value is 3. For the same compound, in assay [4], the “Inhibiting rate (serum ALT)” value is listed as 99% and the “Serum ALT value” amounted to 98 ± 26 KA unit/l. Moreover, in the assay on hepatocyte necrosis [5], the “Degree of necrosis 0: number of animals” value is reported as 7, the “Degree of necrosis 1: number of animals” value amounted to 0, the “Degree of necrosis 2: number of animals” value turned out to be 2 and the “Degree of necrosis 3: number of animals” value turned out to be 0. Further, in the assay with hepatocyte necrosis [5], the “Degree of necrosis 4: number of animals” value amounted to 0.
In the case of `CC(C)OC(=O)C(C(=O)OC(C)C)=C1SC=CS1` [malotilate], the “effect of preventing and treating hepatic diseases” value in assay [7] is “good effect of preventing and treating hepatic diseases induced by carbon tetrachloride and acetaminophen”.
`C=CCS[S+]([O-])CC=C` (stereo not drawn) [allicin]: the “effect on oncogenesis and hepatotoxicity of 1,2-dimethylhydrazine” value in assay [6] is “inhibiting oncogenesis due to 1,2-dimethylhydrazine and protecting liver from hepatotoxicity of 1,2-dimethylhydrazine”.
With `Cc1c(-c2cnccn2)ssc1=S` [Oltipraz], the “protection of cellular tissue from radiation” value in assay [8] is given as “protect the cellular tissue from radiation”. The “expression rate of mEH and GST” value in assay [9] is “increases the expression rate of microsomal epoxide hydrolase (mEH) and glutathione S-transferases (GST)”.

(Values after patent US5942511A, “Allylthiopyridazine derivatives and process for preparing the same” (Kwon; Soon Kyoung, priority 1998, dated 1999).)
